According to patent US11680061B2, “Crystal forms C and E of pyrazin-2(1H)-one compound and preparation method therefor” (ZHANGZHOU PIEN TZE HUANG PHARMACEUTICAL CO., LTD., priority 2019, dated 2023):

Assays:
[1] = Hygroscopicity study by dynamic vapor sorption (DVS); assay type: physicochemical; settings: 25° C. and 80% RH
Experimental: Dynamic Vapor Sorption (DVS) Method in the Present Disclosure
Instrument model: SMS DVS Advantage dynamic vapor sorption instrument
Test conditions: samples (10 mg to 15 mg) were placed in a DVS sample tray for testing.
Detailed DVS parameters are as follows:
Balance: dm/dt=0.01%/min (shortest: 10 min, longest: 180 min)
Drying: 120 min under 0% RH
RH (%) test step range: 0% to 90% to 0%
The evaluation classification of hygroscopicity was as follows:
10 to 15 mg of the crystal form C of the compound of formula (II) was placed in the DVS sample tray for testing.
10 to 15 mg of the crystal form E of the compound of formula (II) was placed in the DVS sample tray for testing.

[2] = Pharmacokinetic evaluation in mice, single intragastric administration; assay type: in vivo, CD-1 mice (male)
Experimental: Experimental Purposes: To Test the Pharmacokinetics of the Compound in Mice
CD-1 mice (male), vehicle (0.5% (w/v) methylcellulose 0.5% (v/v) Tween 80 aqueous solution), trifluoroacetate salt of compound 0027.
The vehicle was 0.5% (w/v) methylcellulose and 0.5% (v/v) Tween 80 aqueous solution, and the formulation was prepared according to the following procedure: […]
Preparation of formulation for intragastric administration: […]
Animals in groups 1 and 2 were given 5 mg/mL and 30 mg/mL compound by single intragastric administration, respectively, with a dose volume of 10 mL/kg.
The animals were weighed before administration, and the administration volume was calculated according to the body weight.
Whole blood samples (30 μL) were collected at specified times (0.25, 0.5, 1, 2, 4, 6, 8, 24 hours) by saphenous vein collection and the actual time of collection was recorded in the test record. The acceptable error for the collection time points was ±1 minute for time points within 1 hour of administration and ±5% of the theoretical time for other time points.
All blood samples were immediately transferred to labeled commercial centrifuge tubes containing K2-EDTA. […] And the pharmacokinetic parameters were calculated, experimental result: See Table 5.

| SMILES | Classification of hygroscopicity [1] | ΔW, hygroscopic weight gain [1] | Tlast ([2]; CD-1 mice, intragastric, 300 mpk, plasma) | pharmacokinetic index in mice ([2]; conclusion in words) |
| --- | --- | --- | --- | --- |
| COc1cc(OC)c(Cl)c(-c2nc(-c3nc(-c4cn(C)nc4C)cnc3N)cn(C)c2=O)c1 [crystal form C of the compound of formula (II)] | slightly hygroscopic | 1.1% | – | – |
| COc1cc(OC)c(Cl)c(-c2nc(-c3nc(-c4cn(C)nc4C)cnc3N)cn(C)c2=O)c1 [crystal form E of the compound of formula (II)] | slightly hygroscopic | 0.5% | – | – |
| COc1cc(OC)c(Cl)c(-c2nc(-c3nc(-c4cn(C)nc4C)cnc3N)cn(C)c2=O)c1 | – | – | 24.0 h | good |
